Experimental data published in US20220232831A1, “NOVEL NON-CODING HETEROCYCLIC AMINO ACIDS (NCHAA) AND THEIR USE AS HERBICIDES” (Fortephest Ltd., priority 2019, published 2022).

Tests used:
[1] = test system: Romaine lettuce (Lactuca sativa L.) plants; assay: Post-emergency herbicidal activity on Romaine lettuce plants; assay type: in vivo; settings: Romaine lettuce at stage 2 to 3 leaves; compound in 0.1% Silwet, up to 0.5%; visual evaluation vs control plants
Method: The tests were performed on Romaine lettuce (Lactuca sativa L.) plants at the stage 2 to 3 leaves. The plants were grown on 300 well trays packed with soil, well dimensions 2×2×5 cm. Each compound was dissolved in 0.1% water solution of agronomically acceptable surfactant Silwet to final concentrations ranging from 0.0% (Control) to 0.5%. Two weeks after the treatment the herbicidal effects of the respective test material were visually evaluated by a comparison with the control plants. In addition, the aboveground part of the plant was neatly cut and weighed (wet weight). Each test was performed on 20 to 40 plants. The degree of growth inhibition and damage was evaluated according to the parameters in Table 2. Plant development at 7, 14, and 21 DAA (days after application) were evaluated on a scale of 0 to 100, in which score 0 represents dead plants and score 100 represents healthy plants according to plant vigor, height, and leaf color. Each test included 20 to 40 plants.

[2] = test system: Seeds of Lettuce R. (Super-Jericho); assay: Filter paper bioassay with lettuce seeds (germination and early plant development); assay type: in vivo; settings: lettuce seeds on filter paper; 1, 0.1, 0.01, 0.001 mM; radicle and shoots assessed after 6 days
Method: Seeds of Lettuce R. (Super-Jericho, non-sterilized) were obtained from Ben Shahar Moshe Ltd., 99% purity.
Filter Paper Bioassays with Lettuce Seeds:
The protocol is following Bertin et al. 2009 and Movellan et al. 2014 with specified modifications as described below.
Seeds were placed on Whatman no. 1 filter paper (Whatman, Middlesex, U.K.) in Petri dishes (10 seeds per plate) supplemented with 2.0 ml of water (Control) or with a solution comprising 1 mM, 0.1 mM, 0.01 mM and 0.001 mM of test material. Petri dishes with seeds were placed in a tray at an angle of 45°. The trays were kept in dark for 48 hours and then transferred to the growth chamber (22° C., 0.045 mmol×m−2×s−1 photosynthetic photon flux density; 6/18 dark/light cycle) for additional 4 days. Each experiment was performed at least in two repeats. The development of radicle and shoots of experimental and control plants were visually assessed 6 days after the beginning of the test to determine Minimal Effective Concentration (MEC) of test material. In the context of the invention, MEC is defined as the lowest concentration level of a test material that caused deviation (absence of germination or malformation of radicle and shoots) from the plant's development in the Control group.

| Structure (SMILES) | post-emergency herbicidal activity (Activity Index: plant's development vs Control) [1] | Minimal Effective Concentration (MEC) as activity score, seeds germination & early plants development [2] |
| --- | --- | --- |
| CCCOC(=O)C(N)Cc1cc(Cl)oc1Cl (stereo not drawn) [Code 575] | Moderate (From 50 to 75) | Strong (0.1 mM) |
| NC(Cc1ccsc1)C(=O)NCCOCCO (stereo not drawn) [Code 549] | Weak (More than 75) | Weak (More than 1 mM) |
| O=C(O)[C@@H](O)Cc1c[nH]cn1 [Code 710] | Weak (More than 75) | Weak (More than 1 mM) |
| NC(Cc1c(F)cnc(Br)c1F)C(=O)O (stereo not drawn) [Code 655] | Maximal (Less than 15) | Strong (0.1 mM) |
| CCOC(=O)C(Cc1ccnc(OC)n1)NC(C)=O (stereo not drawn) [Code 673] | Weak (More than 75) | Weak (More than 1 mM) |
| CCOC(=O)C(Cc1nc(Cl)sc1Cl)NC(C)=O (stereo not drawn) [Code 567] | Maximal (Less than 15) | Weak (More than 1 mM) |
| NC(Cc1cccs1)C(=O)O (stereo not drawn) [Code 501] | Strong (From 25 to 50) | Maximal (0.01 mM and less) |
| CCOCCOCCOC(=O)C(N)Cc1ccc(Br)nc1 (stereo not drawn) [Code 675] | Moderate (From 50 to 75) | Strong (0.1 mM) |
| O=CNC(Cc1ccsc1)C(=O)O (stereo not drawn) [Code 545] | Weak (More than 75) | Weak (More than 1 mM) |
| CCOC(=O)C(Cc1ccc(Br)nc1)NC(C)=O (stereo not drawn) [Code 671] | Weak (More than 75) | Strong (0.1 mM) |
| NC(Cc1nccc(O)n1)C(=O)O (stereo not drawn) [Code 619] | Weak (More than 75) | Weak (More than 1 mM) |
| CCOCCOCCOC(=O)C(Cc1cc(Cl)sc1Cl)NC(C)=O (stereo not drawn) [Code 577] | Strong (From 25 to 50) | Moderate (1 mM) |
| COC(=O)C(N)Cc1ccnc(Br)c1 (stereo not drawn) [Code 666] | Maximal (Less than 15) | Strong (0.1 mM) |
| NC(Cc1cncnc1)C(=O)O (stereo not drawn) [Code 614] | Weak (More than 75) | Weak (More than 1 mM) |
| NC(Cc1cnc(Cl)c(Cl)c1)C(=O)O (stereo not drawn) [Code 641] | Very Strong (From 15 to 25) | Strong (0.1 mM) |
| CCOCCOC(=O)C(Cc1nc(Cl)sc1Cl)NC(C)=O (stereo not drawn) [Code 555] | Maximal (Less than 15) | Strong (0.1 mM) |
| NC(Cc1cc(Cl)cnc1Cl)C(=O)O (stereo not drawn) [Code 624] | Moderate (From 50 to 75) | Moderate (1 mM) |
| NC(Cc1c[nH]c(=O)[nH]c1=O)C(=O)O (stereo not drawn) [Code 620] | Weak (More than 75) | Weak (More than 1 mM) |

| Structure (SMILES) | post-emergency herbicidal activity (Activity Index: plant's development vs Control) [1] | Minimal Effective Concentration (MEC) as activity score, seeds germination & early plants development [2] |
| --- | --- | --- |
| Nc1cc(Cl)nc(CC(N)C(=O)O)n1 (stereo not drawn) [Code 616] | Weak (More than 75) | Weak (More than 1 mM) |
| NC(Cc1ccc(Cl)nc1)C(=O)O (stereo not drawn) [Code 627] | Moderate (From 50 to 75) | Strong (0.1 mM) |
| CCOC(=O)C(N)Cc1cnc(Br)c(Br)c1 (stereo not drawn) [Code 661] | Moderate (From 50 to 75) | Maximal (0.01 mM and less) |
| NC(CNS(=O)(=O)c1cscc1F)C(=O)O (stereo not drawn) [Code 506] | Weak (More than 75) | Weak (More than 1 mM) |
| CCOC(=O)C(N)CNS(=O)(=O)c1cc(Cl)sc1Cl (stereo not drawn) [Code 524] | Weak (More than 75) | Weak (More than 1 mM) |
| NC(Cc1cncc(Cl)c1)C(=O)O (stereo not drawn) [Code 622] | Moderate (From 50 to 75) | Strong (0.1 mM) |
| NC(Cc1nc(Cl)sc1Cl)C(=O)O (stereo not drawn) [Code 527] | Maximal (Less than 15) | Moderate (1 mM) |
| NC(CC1CCSC1)C(=O)O (stereo not drawn) [Code 562] | Weak (More than 75) | Weak (More than 1 mM) |
| Nc1cc(CC(N)C(=O)O)ccn1 (stereo not drawn) [Code 608] | Moderate (From 50 to 75) | Moderate (1 mM) |
| NC(Cc1ccc[n+](O)c1)C(=O)O (stereo not drawn) [Code 668] | Weak (More than 75) | Weak (More than 1 mM) |
| N#Cc1cc(C[C@H](N)C(=O)O)cs1 [Code 509] | Maximal (Less than 15) | Strong (0.1 mM) |
| NC(Cc1cscc1C(F)(F)F)C(=O)O (stereo not drawn) [Code 566] | Maximal (Less than 15) | Strong (0.1 mM) |
| N[C@@H](Cn1oc(=O)[nH]c1=O)C(=O)O [Code 557] | Weak (More than 75) | Weak (More than 1 mM) |
| Cl.Cl.NC(Cc1ncccn1)C(=O)O (stereo not drawn) [Code 618] | Weak (More than 75) | Weak (More than 1 mM) |
| NC(CCc1cc[nH]c1)C(=O)O (stereo not drawn) [Code 702] | Weak (More than 75) | Weak (More than 1 mM) |
| CCOC(=O)C(N)CNS(=O)(=O)c1cc(Br)sc1Br (stereo not drawn) [Code 580] | Very Strong (From 15 to 25) | Strong (0.1 mM) |
| NC(CNS(=O)(=O)c1ccsc1)C(=O)O (stereo not drawn) [Code 504] | Weak (More than 75) | Weak (More than 1 mM) |
| NC(Cc1ccc(=O)[nH]c1)C(=O)O (stereo not drawn) [Code 650] | Weak (More than 75) | Moderate (1 mM) |
